Read-outs that look alike come from different tables or passages of the source. Numbered stars: 1 amine (or outer) side, 2 acyl side, 3 side chain; on linkers, the order of the positions; unused ones are H or OH. Bridge positions count the residues as written; N and C are the ends. Square brackets hold non-standard residues; d marks the D form. Peptide text beside a SMILES is read from it. * marks the point of attachment. C20 diacid = O=C(O)CCCCCCCCCCCCCCCCCCC(=O)*; γGlu = O=C(O)[C@H](CCC(=O)[*:2])N[*:1]; NMeI = CC[C@H](C)[C@H](NC)C(=O)O; Sar = CNCC(=O)O
Experiments:
[1] = Solubility assessment (turbidity absorbance at 325 nm); format: physicochemical; details: stock 2 mg/ml diluted 1:1, ambient temperature (typically 25°C), n=1; for Solubility, Acetate buffer pH 4: 100 mM acetate buffer pH 4.0; for Solubility, Acetate buffer pH 5: 100 mM acetate buffer pH 5.0; for Solubility, Histidine buffer pH 6: 100 mM histidine buffer pH 6.0; for Solubility, Histidine buffer pH 7: 100 mM histidine buffer pH 7.0; for Solubility, Phosphate buffer pH 6: 100 mM phosphate buffer pH 6.0; for Solubility, Phosphate buffer pH 7: 100 mM phosphate buffer pH 7.0; for Solubility, Phosphate buffer pH 7.5: 100 mM phosphate buffer pH7.5
In short: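 Peptide stock (2 mg/ml) in water acidified to pH 2.5 with HCl was diluted 1:1 into 100 mM acetate (pH 4.0, 5.0), histidine (pH 6.0, 7.0) or phosphate (pH 6.0, 7.0, 7.5) buffer. A280 and A325 were read at about 25°C, n=1. A325 ≤ 0.02 meant solubility ≥ 1 mg/ml.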

[2] = biological target: T1, human amylin receptor 3 (hAMYR3) consisting of hCTR2 co-expressed with human Receptor Activity Modifying Protein 3 (hRAMP3) (Homo sapiens, UniProt O60896+P30988); assay: hAMYR3 assay: induction of cAMP (AlphaScreen cAMP Assay kit) in COS7 cells expressing hAMYR3; format: cell-based
T1 construct: expressed in transfected cells
T1 sequence (P30988 25-474): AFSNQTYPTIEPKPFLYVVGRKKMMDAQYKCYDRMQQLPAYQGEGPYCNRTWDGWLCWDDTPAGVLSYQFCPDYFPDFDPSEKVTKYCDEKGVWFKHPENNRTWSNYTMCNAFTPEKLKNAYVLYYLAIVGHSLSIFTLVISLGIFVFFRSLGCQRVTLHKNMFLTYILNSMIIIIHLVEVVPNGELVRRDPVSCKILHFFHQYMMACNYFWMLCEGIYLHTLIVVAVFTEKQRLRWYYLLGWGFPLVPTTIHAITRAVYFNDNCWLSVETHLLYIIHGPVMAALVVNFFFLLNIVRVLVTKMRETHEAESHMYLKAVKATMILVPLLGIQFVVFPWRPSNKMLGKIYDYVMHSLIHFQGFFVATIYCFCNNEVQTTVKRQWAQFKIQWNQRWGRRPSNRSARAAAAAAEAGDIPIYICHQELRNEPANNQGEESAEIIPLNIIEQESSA
T1 sequence (O60896 24-148 partner): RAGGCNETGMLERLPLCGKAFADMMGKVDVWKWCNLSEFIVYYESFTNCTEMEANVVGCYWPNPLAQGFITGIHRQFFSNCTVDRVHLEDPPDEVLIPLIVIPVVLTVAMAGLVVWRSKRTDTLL
In short: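 Stable COS7 clone co-expressing hCTR2 and hRAMP3, stimulated 15 min at 37° C with increasing peptide in Tyrode buffer pH 7.4 with 100 µM IBMX and 0.1% casein. cAMP measured by AlphaScreen after lysis; EC50 and % efficacy versus pramlintide from 4PL fit.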

[3] = biological target: T2, human calcitonin receptor (hCTR2) (Homo sapiens, UniProt P30988); assay: hCTR2 assay: induction of cAMP (AlphaScreen cAMP Assay kit) in COS7 cells expressing hCTR2; format: cell-based
T2 construct: expressed in transfected cells
T2 sequence (P30988 25-474): T1 sequence (P30988 25-474)
In short: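 Stable RAMP-naive COS7 clone expressing hCTR2 was stimulated with increasing peptide concentrations in Tyrode buffer (pH 7.4) with 100 µM IBMX and 0.1% casein for 15 min at 37° C. Cells were lysed and cAMP measured by AlphaScreen. EC50 and efficacy relative to pramlintide came from 4PL curve fits.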

Row | Compound | Solubility, Acetate buffer pH 4 [1] | Solubility, Acetate buffer pH 5 [1] | Solubility, Histidine buffer pH 6 [1] | Solubility, Histidine buffer pH 7 [1] | Solubility, Phosphate buffer pH 6 [1] | Solubility, Phosphate buffer pH 7 [1] | Solubility, Phosphate buffer pH 7.5 [1] | EC50 ([2]; cAMP induction in COS7 cells expressing hAMYR3, average of a minimum of 3 determinations, read-out: hAMY R3 EC50) [nM] | EC50 ([3]; cAMP induction in COS7 cells expressing hCTR2, average of a minimum of 3 determinations, read-out: hCTR2 EC50) [nM] | EC50 [2] [nM] | EC50 [3] [nM]
1 | CC[C@H](C)[C@@H](C(=O)N[C@@H](CC(C)C)C(=O)N[C@@H](CO)C(=O)N[C@@H](CO)C(=O)N[C@H](C(=O)N[C@@H](CCC(=O)O)C(=O)N[C@H](C(=O)NCC(=O)N[C@@H](CO)C(=O)N[C@@H](CCC(=O)O)C(=O)N[C@H](C(=O)N1CCC[C@H]1C(N)=O)[C@@H](C)O)C(C)C)[C@@H](C)O)N(C)C(=O)[C@H](C)NC(=O)CN(C)C(=O)[C@H](Cc1ccccc1)NC(=O)[C@H](CO)NC(=O)[C@H](CO)NC(=O)[C@H](CO)NC(=O)[C@H](CO)NC(=O)[C@H](CCCNC(=N)N)NC(=O)[C@H](Cc1c[nH]cn1)NC(=O)[C@H](CC(C)C)NC(=O)[C@H](Cc1ccccc1)NC(=O)[C@H](CCC(=O)O)NC(=O)[C@H](C)NC(=O)[C@H](CC(C)C)NC(=O)[C@H](CCCNC(=N)N)NC(=O)[C@H](CCC(=O)O)NC(=O)[C@@H](NC(=O)[C@H](C)NC(=O)[C@@H]1CSSC[C@H](NC(=O)[C@H](CCCNC(=N)N)NC(=O)CC[C@H](NC(=O)CCCCCCCCCCCCCCCCCCC(=O)O)C(=O)O)C(=O)N[C@@H](CC(N)=O)C(=O)N[C@@H]([C@@H](C)O)C(=O)N[C@@H](C)C(=O)N[C@@H]([C@@H](C)O)C(=O)N1)[C@@H](C)O [Compound 119, [19CD]-isoGlu-RC()NTATC()ATERLAEFLHRSSSSF-Gly(Me)-A-Ile(Me)-LSSTEVGSETP-NH2] ({C20 diacid-γGlu}-RCNTATCATERLAEFLHRSSSSF[Sar]A[NMeI]LSSTEVGSETP-NH2; disulfide 2-7) | SS (SS indicates solubility ≥ 1mg/ml) | SS (SS indicates solubility ≥ 1mg/ml) | SS (SS indicates solubility ≥ 1mg/ml) | SS (SS indicates solubility ≥ 1mg/ml) | SS (SS indicates solubility ≥ 1mg/ml) | SS (SS indicates solubility ≥ 1mg/ml) | SS (SS indicates solubility ≥ 1mg/ml) | 0.3 | 0.17 | – | –
2 | CC[C@H](C)[C@@H](C(=O)N[C@@H](CC(C)C)C(=O)N[C@@H](CO)C(=O)N[C@@H](CO)C(=O)N[C@H](C(=O)N[C@@H](CC(N)=O)C(=O)N[C@H](C(=O)NCC(=O)N[C@@H](CO)C(=O)N[C@@H](CC(N)=O)C(=O)N[C@H](C(=O)N[C@@H](C)C(N)=O)[C@@H](C)O)C(C)C)[C@@H](C)O)N(C)C(=O)[C@H](C)NC(=O)CN(C)C(=O)[C@H](Cc1ccccc1)NC(=O)[C@H](CC(N)=O)NC(=O)[C@H](CC(N)=O)NC(=O)[C@H](CO)NC(=O)[C@H](CO)NC(=O)[C@H](CCCNC(=N)N)NC(=O)[C@H](Cc1c[nH]cn1)NC(=O)[C@H](CC(C)C)NC(=O)[C@H](Cc1ccccc1)NC(=O)[C@H](CCC(=O)O)NC(=O)[C@H](C)NC(=O)[C@H](CC(C)C)NC(=O)[C@H](CCCNC(=N)N)NC(=O)[C@H](CCC(N)=O)NC(=O)[C@@H](NC(=O)[C@H](C)NC(=O)[C@@H]1CSSC[C@H](NC(=O)[C@H](CCCNC(=N)N)NC(=O)CC[C@H](NC(=O)CCCCCCCCCCCCCCCCCCC(=O)O)C(=O)O)C(=O)N[C@@H](CC(N)=O)C(=O)N[C@@H]([C@@H](C)O)C(=O)N[C@@H](C)C(=O)N[C@@H]([C@@H](C)O)C(=O)N1)[C@@H](C)O [Compound 97, [19CD]-isoGlu-RC()NTATC()ATQRLAEFLHRSSNNF-Gly(Me)-A-Ile(Me)-LSSTNVGSNTA-NH2] ({C20 diacid-γGlu}-RCNTATCATQRLAEFLHRSSNNF[Sar]A[NMeI]LSSTNVGSNTA-NH2; disulfide 2-7) | SS (SS indicates solubility ≥ 1mg/ml) | SS (SS indicates solubility ≥ 1mg/ml) | SS (SS indicates solubility ≥ 1mg/ml) | SS (SS indicates solubility ≥ 1mg/ml) | SS (SS indicates solubility ≥ 1mg/ml) | SS (SS indicates solubility ≥ 1mg/ml) | SS (SS indicates solubility ≥ 1mg/ml) | – | – | 0.68 | 0.33
